Where “and” joins values, the source holds several entries; their conditions need not be identical. Equal values may be shown once.
Assays:
[1] = system: PBMC cultures from HIV-1 infected subjects on cART; assay: Induced HIV-1 expression in PBMC cultures, HIV-1 RNA in supernatant after 4 days (COBAS TaqMan HIV-1 Test); assay type: cell-based, human; settings: for N with ≥2-Fold-Activation: subjects; for Fold HIV-1 Activation: vs DMSO; for Geometric Mean with ≥2-Fold-Activation / Range with ≥2-Fold-Activation: N = 5
Method: In some experiments, IL-15, the TLR8 modulating compound of Example 15 or the combination of IL-15 and Example 15 were used at the indicated concentrations (Table 4). The cultures were maintained in the presence of antivirals (elvitegravir and efavirenz at 100 nM each) to prevent viral spread and amplification in order to measure the quantity of virus produced (latency reversal) by the TLR8 modulating compounds. At the end of the incubation period, cell-free culture supernatants were harvested and HIV-1 RNA levels were quantified by the COBAS® AmpliPrep/COBAS®TaqMan HIV-1 Test, v2.0 (Roche).
In each table, fold-activation is calculated as a ratio of HIV-1 RNA copies per ml of cell culture supernatants from TLR8 agonist treated samples and DMSO treated controls. Geometric mean fold-activation from three independent incubation samples for each condition of each subject's PBMCs. Values in bold indicate ≥2-fold HIV activation.
To assess if the latency reversal induced by TLR8 agonism could further potentiate latency reversal by a separate mechanisms, we treated cells as described above with IL-15, Example 15, or a combination of IL-15 and Example 15 (Table 4).

[2] = system: serum cytokines and chemokines; assay: Induction of cytokines and chemokines in serum of orally dosed Rhesus macaques (Luminex); assay type: in vivo
Method: The TLR8 modulator of Example 65 was formulated in 2% ethanol, 40% polyethylene glycol 300, and 58% 0.01 N hydrochloric acid. Oral solutions of formulations were prepared by dissolving a sufficient amount of the compound in the 2% ethanol, 40% polyethylene glycol 300, and 58% 0.01 N hydrochloric acid vehicle to arrive at 0.5, 1.5, or 5 mg/ml of Example 65. Rhesus macaques were dosed orally with 1.2 to 2 mls/kg to achieve dose levels of 1, 3, 6, or 10 mg/kg Example 65. Blood samples were collected at 2, 4, 8, 12, 24 and 48 hours postdose (FIG. 5) and allowed to clot under ambient conditions prior to centrifugation to obtain serum. The indicated cytokines and chemokines were quantified in serum with a multiplexed Luminex® assay following the manufacturer's instructions (Life Technologies). […] At 10 and 6 mg/kg, IL-12, IL-1RA and MCP-1 peaked near 10 ng/ml and IL-6 peaked at 1 ng/ml.

[3] = system: HIV-specific polyfunctional CD8 T cells; assay: Induced HIV-specific polyfunctional CD8+ T cells in PBMC cultures from HIV-1 infected subjects on cART; assay type: cell-based, human; settings: for Median HIV-specific polyfunctional CD8 T cells (% proliferating CD8+ cells double positive for IFN-γ and TNF-α): HIV peptide pool, 5 subjects

IL-15: interleukin-15, used at 1 nM as a separate latency reversal stimulus
Subjects with ≥2-Fold-Activation (%) ([1]; IL-15 1 nM): 66% | Fold HIV-1 Activation, Geometric Mean ([1]; IL-15 1 nM, N = 6): 2.9 fold | N with ≥2-Fold-Activation ([1]; IL-15 1 nM): 4 of 6 | Fold HIV-1 Activation ([1]; IL-15 1 nM, one value per subject (IDs 205-210)): 1.6 fold and 2.6 fold and 3.3 fold and 4.4 fold and 6.3 fold and 1.4 fold

CCCC[C@](C)(CNC(C)=O)Nc1nc(N)nc2cc(Cl)cnc12 [Example 65]
Induction of cytokines associated with TLR8 activation (IL-12, IL-6, IL-1RA, MCP-1) in serum ([2]; oral 1, 3, 6, or 10 mg/kg): induced in a dose-dependent manner | IL-1RA peak serum concentration ([2]; oral 10 and 6 mg/kg): ~10 ng/mL | IL-6 peak serum concentration ([2]; oral 10 and 6 mg/kg): 1 ng/mL | IL-12 peak serum concentration ([2]; oral 10 and 6 mg/kg): ~10 ng/mL | MCP-1 peak serum concentration ([2]; oral 10 and 6 mg/kg): ~10 ng/mL | Time of peak serum cytokine concentrations post-dose ([2]; oral dosing): 2 h

CCCCC(C)(CO)Nc1nc(N)nc2cc(F)cnc12 (stereo not drawn) [Example 98]
Patients in whom increases in HIV-specific polyfunctional CD8 T cells were seen ([3]; 100 nM): 4 of 5 | Median HIV-specific polyfunctional CD8 T cells (% proliferating CD8+ cells double positive for IFN-γ and TNF-α) ([3]; 100 nM): 0.93% | Patients in whom increases in HIV-specific polyfunctional CD8 T cells were seen ([3]; 1000 nM): 4 of 5 | Fold increase of median HIV-specific polyfunctional CD8 T cells ([3]; 1000 nM with HIV specific peptide pool vs vehicle, p<0.05): 7.1 fold | Median HIV-specific polyfunctional CD8 T cells (% proliferating CD8+ cells double positive for IFN-γ and TNF-α) ([3]; 1000 nM): 0.92%

CCC[C@@H](CO)Nc1nc(N)nc2cc(F)c(F)cc12 [Example 119, (S)-2-((2-amino-6,7-difluoroquinazolin-4-yl)amino)pentan-1-ol, reference compound]
Subjects with ≥2-Fold-Activation (%) ([1]; 156 nM): (67) % | Geometric Mean with ≥2-Fold-Activation ([1]; 156 nM): 4.2 fold | Range with ≥2-Fold-Activation ([1]; 156 nM): 3.6-4.9 fold | N with ≥2-Fold-Activation ([1]; 156 nM): 2 of 3 | Fold HIV-1 Activation ([1]; 156 nM, one value per subject (IDs 151-155)): 3.6 fold and 4.9 fold and 0.4 fold | Subjects with ≥2-Fold-Activation (%) ([1]; 625 nM): (60) % | Geometric Mean with ≥2-Fold-Activation ([1]; 625 nM): 4.1 fold | Range with ≥2-Fold-Activation ([1]; 625 nM): 3.4-4.8 fold | N with ≥2-Fold-Activation ([1]; 625 nM): 3 of 5 | Fold HIV-1 Activation ([1]; 625 nM, one value per subject (IDs 151-155)): 3.4 fold and 4.1 fold and 4.8 fold and 0.3 fold and 0.5 fold | Subjects with ≥2-Fold-Activation (%) ([1]; 2,500 nM): (100) % | Geometric Mean with ≥2-Fold-Activation ([1]; 2,500 nM): 3.6 fold | Range with ≥2-Fold-Activation ([1]; 2,500 nM): 2.2-5.2 fold | N with ≥2-Fold-Activation ([1]; 2,500 nM): 5 of 5 | Fold HIV-1 Activation ([1]; 2,500 nM, one value per subject (IDs 151-155)): 4.1 fold and 4.2 fold and 3.2 fold and 5.2 fold and 2.2 fold | Geometric Mean with ≥2-Fold-Activation ([1]; 156, 625, or 2500 nM): 4.1 fold | Range with ≥2-Fold-Activation ([1]; 156, 625, or 2500 nM): 2.2-5.2 fold | N with ≥2-Fold-Activation ([1]; 156, 625, or 2500 nM): 5 out of 5 and 5 of 5

— patent US20180263985A1, “MODULATORS OF TOLL-LIKE RECEPTORS FOR THE TREATMENT OF HIV” (Gilead Sciences, Inc., priority 2015, published 2018)
